Active and inactive are the calls of the source. The rule behind the calls is not given here. Where a SMILES comes first, the peptide text is derived from it. Bridges are numbered along the chain shown (N, C = ends).

Series [1] is described as follows: Inhibition of TAU derived synthetic hexapeptide AcPHF6 fibril formation at compound:AcPHF6 ratio of 1:1 to 1:64 incubated for 60 mins by thioflavin S fluorescence assay.
The next series concerns Serum. Briefly: Stability in 100% human serum at 30 uM after 24 hrs. It counts as ADME.
Series [2] can be described thus: Binding affinity to thioflavin S at compound:AcPHF6 ratio of 1:1 to 1:64 incubated for 120 mins by fluorescence assay.
Series [3] is described as follows: Activation of TAU derived synthetic hexapeptide AcPHF6 fibril formation at compound:AcPHF6 ratio of 1:1 to 1:64 incubated for 60 mins by thioflavin S fluorescence assay.
A short description of series [4]: Inhibition of TAU derived synthetic hexapeptide AcPHF6 fibril formation incubated for 60 mins by thioflavin T fluorescence assay.

For `CC[C@@H](C)[C@@H]1NC(=O)[C@@H]2CSSC[C@H](NC(=O)[C@@H]([C@H](C)CC)NC(=O)CNC(=O)[C@H]3CCCN3C1=O)C(=O)N[C@H](Cc1ccc(O)cc1)C(=O)N[C@H](CCCCN)C(=O)N[C@H](CO)C(=O)N[C@H]([C@H](C)CC)C(=O)N1CCC[C@H]1C(=O)N1CCC[C@H]1C(=O)NCC(=O)N2`, the inhibition entry in series [1] was “Active”.
On to `CC[C@@H](C)[C@H]1NC(=O)[C@@H]2CCCN2C(=O)[C@@H]2CCCN2C(=O)[C@H]([C@@H](C)CC)NC(=O)[C@H](CO)NC(=O)[C@H](CC(N)=O)NC(=O)[C@H](CCC(=O)O)NC(=O)[C@@H]2CSSC[C@H](NC1=O)C(=O)N[C@@H](CCC(N)=O)C(=O)N[C@H](CCCCN)C(=O)N[C@H](CC(C)C)C(=O)N1CCC[C@H]1C(=O)N[C@H](CC(=O)O)C(=O)NCC(=O)N[C@H](CC(C)C)C(=O)N[C@@H](Cc1ccc(O)cc1)C(=O)N[C@H](CCC(N)=O)C(=O)N2`, for which, in series [1], the inhibition result is “Active”.
Turning to `CC[C@H](C)[C@@H]1NC(=O)[C@H](CCC(N)=O)NC(=O)[C@H](C(C)C)NC(=O)CNC(=O)[C@H]2CCCN2C(=O)[C@H](C(C)C)NC(=O)[C@H](CCC(N)=O)NC(=O)[C@H]([C@@H](C)CC)NC(=O)[C@@H]2CSSC[C@H](NC1=O)C(=O)N[C@@H](Cc1ccc(O)cc1)C(=O)N[C@@H](CCCCN)C(=O)N[C@@H](CO)C(=O)N[C@@H]([C@@H](C)CC)C(=O)N1CCC[C@H]1C(=O)N1CCC[C@H]1C(=O)N[C@@H]([C@@H](C)CC)C(=O)N2`, the inhibition entry in series [1] is “Active”.
Take `CC[C@H](C)[C@@H]1NC(=O)[C@@H]2CCCN2C(=O)[C@@H]2CCCN2C(=O)[C@H]([C@@H](C)CC)NC(=O)[C@H](CO)NC(=O)[C@H](Cc2ccccc2)NC(=O)[C@H](CC(N)=O)NC(=O)[C@@H]2CSSC[C@H](NC1=O)C(=O)N[C@@H](CCC(N)=O)C(=O)N[C@@H](CCCCN)C(=O)N[C@@H](CO)C(=O)N1CCC[C@H]1C(=O)N[C@@H](CC(=O)O)C(=O)NCC(=O)N[C@@H](CO)C(=O)N[C@@H](CC(N)=O)C(=O)N[C@@H](CCC(N)=O)C(=O)N2` (cyclo(CNFSIPPICQKSPDGSNQ); disulfide 1-9): the inhibition entry in series [1] is “Active”.
On to `CC[C@H](C)[C@@H]1NC(=O)[C@H](CCC(N)=O)NC(=O)[C@H](C(C)C)NC(=O)CNC(=O)[C@H](CC(=O)O)NC(=O)[C@@H]2CCCN2C(=O)[C@H](C(C)C)NC(=O)[C@H](CCCCN)NC(=O)[C@H]([C@@H](C)CC)NC(=O)[C@@H]2CSSC[C@H](NC1=O)C(=O)N[C@@H](Cc1ccc(O)cc1)C(=O)N[C@@H](CCCCN)C(=O)N[C@@H](CO)C(=O)N[C@@H]([C@@H](C)CC)C(=O)N1CCC[C@H]1C(=O)N1CCC[C@H]1C(=O)NCC(=O)N2` (cyclo(CIKVPDGVQICYKSIPPG); disulfide 1-11), for which, in series [1], the inhibition entry was “Active”. The Stability result in the series with Serum was “Stable”.
With `CC[C@H](C)[C@@H]1NC(=O)[C@H](C)NC(=O)CNC(=O)[C@@H]2CCCN2C(=O)[C@@H]2CCCN2C(=O)[C@H]([C@@H](C)CC)NC(=O)[C@H](CO)NC(=O)[C@H](CCCCN)NC(=O)[C@H](Cc2ccc(O)cc2)NC(=O)[C@H](C)NC(=O)[C@H]([C@@H](C)CC)NC(=O)[C@H](CCC(N)=O)NC(=O)[C@H](C(C)C)NC(=O)CNC(=O)[C@H](CC(=O)O)NC(=O)[C@@H]2CCCN2C(=O)[C@H](C(C)C)NC(=O)[C@H](CCCCN)NC1=O` (cyclo(AIKVPDGVQIAYKSIPPG)), in series [1], the inhibition result is “Active”. Further, the Stability entry in the series on Serum was “Stable”.
Turning to `CC[C@H](C)[C@@H]1NC(=O)[C@@H]2CCCN2C(=O)[C@@H]2CCCN2C(=O)[C@H]([C@@H](C)CC)NC(=O)[C@H](CO)NC(=O)[C@H](CCCCN)NC(=O)[C@H]([C@@H](C)O)NC(=O)[C@H](C)NC(=O)[C@H](CCCNC(=N)N)NC(=O)CNC(=O)[C@H](CC(=O)O)NC(=O)[C@@H]2CCCN2C(=O)[C@H](Cc2ccccc2)NC(=O)[C@H](C)NC1=O` (cyclo(AFPDGRATKSIPPI)), in series [1], the inhibition result is “Active”.
As for `CC[C@H](C)[C@@H]1NC(=O)[C@@H]2CSSC[C@H](NC(=O)[C@H]([C@@H](C)CC)NC(=O)[C@H](CCC(N)=O)NC(=O)[C@@H]3CCCN3C(=O)[C@@H]3CCCN3C(=O)[C@H](C)NC1=O)C(=O)N[C@@H](Cc1ccc(O)cc1)C(=O)N[C@@H](CCCCN)C(=O)N[C@@H](CO)C(=O)N[C@@H]([C@@H](C)CC)C(=O)N1CCC[C@H]1C(=O)N1CCC[C@H]1C(=O)NCC(=O)N2` (cyclo(APPQICYKSIPPGCI); disulfide 6-14), the inhibition entry in series [1] was “Active”.
Turning to `CC[C@H](C)[C@@H]1NC(=O)[C@H](CCC(N)=O)NC(=O)[C@H](C(C)C)NC(=O)CNC(=O)[C@H](CC(=O)O)NC(=O)[C@@H]2CCCN2C(=O)[C@H](C(C)C)NC(=O)[C@H](CCCCN)NC(=O)[C@H]([C@@H](C)CC)NC(=O)[C@@H]2CSSC[C@H](NC1=O)C(=O)N[C@@H](Cc1ccc(O)cc1)C(=O)N[C@@H](CCCCN)C(=O)N[C@@H](CO)C(=O)N[C@@H]([C@@H](C)CC)C(=O)N1CCC[C@H]1C(=O)N1CCC[C@H]1C(=O)N[C@@H]([C@@H](C)CC)C(=O)N2` (cyclo(CIKVPDGVQICYKSIPPI); disulfide 1-11), the inhibition entry in series [1] was “Active”.
On to `CC(C)[C@H](NC(=O)CN)C(=O)N[C@H]1CSSC[C@@H](C(=O)N[C@@H](CCCNC(=N)N)C(=O)N[C@@H](CCCNC(=N)N)C(=O)O)NC(=O)[C@@H](C(C)C)NC(=O)C2CSSCC(NC(=O)[C@H](CCCNC(=N)N)NC1=O)C(=O)N[C@@H](C(C)C)C(=O)N[C@H]1CSSC[C@H](NC(=O)[C@H](C(C)C)NC(=O)CNC(=O)[C@H](CCCNC(=N)N)NC(=O)[C@H](CCCNC(=N)N)NC1=O)C(=O)N[C@@H](CCCNC(=N)N)C(=O)N2`, for which the result in series [2] and in series [3] was Active.
As for `CC[C@H](C)[C@@H]1NC(=O)[C@H](CCC(N)=O)NC(=O)[C@H](C(C)C)NC(=O)CNC(=O)[C@H]2CCCN2C(=O)[C@H](C(C)C)NC(=O)[C@H](C)N(C)C(=O)[C@H]([C@@H](C)CC)NC(=O)[C@H](C)NC(=O)[C@H]([C@@H](C)CC)NC(=O)[C@@H]2CCCN2C(=O)[C@@H]2CCCN2C(=O)[C@H]([C@@H](C)CC)NC(=O)[C@H](CO)NC(=O)[C@H](CCCCN)NC(=O)[C@H](Cc2ccc(O)cc2)NC(=O)[C@H](C(C)C)NC1=O`, in series [1], the inhibition result was “Active”.
Still for that read-out and setting: the entry for `CC[C@H](C)[C@@H]1NC(=O)[C@H](CCC(N)=O)NC(=O)[C@H](C(C)C)NC(=O)CNC(=O)[C@H]2CCCN2C(=O)[C@H](C(C)C)NC(=O)[C@H](CCCCN)NC(=O)[C@H]([C@@H](C)CC)NC(=O)[C@@H]2CSSC[C@H](NC1=O)C(=O)N[C@@H](Cc1ccc(O)cc1)C(=O)N[C@@H](CCCCN)C(=O)N[C@@H](CO)C(=O)N[C@@H]([C@@H](C)CC)C(=O)N1CCC[C@H]1C(=O)N1CCC[C@H]1C(=O)NCC(=O)N2` is “Active”.
With `CC[C@H](C)[C@@H]1NC(=O)[C@H](CCC(N)=O)NC(=O)[C@H](C(C)C)NC(=O)CNC(=O)[C@H]2CCCN2C(=O)[C@H](C(C)C)NC(=O)[C@H](C)N(C)C(=O)[C@H]([C@@H](C)CC)NC(=O)[C@@H]2CSSC[C@H](NC1=O)C(=O)N[C@@H](Cc1ccc(O)cc1)C(=O)N[C@@H](CCCCN)C(=O)N[C@@H](CO)C(=O)N[C@@H]([C@@H](C)CC)C(=O)N1CCC[C@H]1C(=O)N1CCC[C@H]1C(=O)N[C@@H]([C@@H](C)CC)C(=O)N2`, the inhibition entry in series [4] is “Dose-dependent effect”.
For `CC(C)C[C@H](NC(=O)CN)C(=O)N1CCC[C@H]1C(=O)N[C@H](C(=O)N[C@@H]1CSSC[C@H]2NC(=O)CNC(=O)[C@@H]3CCCN3C(=O)[C@H]([C@@H](C)O)NC(=O)[C@@H](CC(N)=O)NC(=O)[C@H]3CSSC[C@H](C(=O)N[C@@H](C(=O)N[C@H](CCCNC(=N)N)C(=O)N[C@@H](CC(N)=O)C(=O)O)[C@@H](C)O)NC(=O)[C@H](C(C)C)NC(=O)[C@H]4CCCN4C(=O)[C@@H](Cc4c[nH]c5ccccc45)NC(=O)[C@H](CO)NC(=O)[C@@H](CSSC[C@@H](NC(=O)[C@@H]([C@@H](C)O)NC(=O)[C@@H](CCC(=O)O)NC(=O)CNC1=O)C(=O)N[C@@H](C(C)C)C(=O)NCC(=O)NCC(=O)N[C@@H]([C@@H](C)O)C(=O)N3)NC(=O)[C@@H]([C@H](C)O)NC2=O)C(C)C`, the inhibition result in series [1] was “Active”.
In the case of `CC[C@H](C)[C@@H]1NC(=O)[C@H](CCC(=O)O)NC(=O)[C@@H]2CCCN2C(=O)[C@H](Cc2cnc[nH]2)NC(=O)[C@H](CC(=O)O)NC(=O)[C@H](Cc2ccc(O)cc2)NC(=O)[C@H](CC(N)=O)NC(=O)[C@H]2CSSC[C@H](NC(=O)CN)C(=O)N[C@@H](CSSC[C@@H](C(=O)NCC(=O)NCC(=O)N[C@@H](C)C(=O)NCC(=O)NCC(=O)O)NC1=O)C(=O)N[C@H](CO)C(=O)N[C@@H](CC(=O)O)C(=O)N1CCC[C@H]1C(=O)N[C@H](CCCNC(=N)N)C(=O)N2`, the inhibition entry in series [1] was “inactive”.
For `CC[C@H](C)[C@@H]1NC(=O)[C@@H]2CSSC[C@H](NC(=O)[C@H]([C@@H](C)CC)NC(=O)[C@H](CCC(N)=O)NC(=O)[C@H](C(C)C)NC(=O)CNC(=O)[C@H]3CCCN3C(=O)[C@H](C(C)C)NC(=O)[C@H](C)NC1=O)C(=O)N[C@@H](Cc1ccc(O)cc1)C(=O)N[C@@H](CCCCN)C(=O)N[C@@H](CO)C(=O)N[C@@H]([C@@H](C)CC)C(=O)N1CCC[C@H]1C(=O)N1CCC[C@H]1C(=O)N[C@@H]([C@@H](C)CC)C(=O)N2`, the inhibition entry in series [1] is “Active”.
The same measure, in the same setting: with `CC[C@H](C)[C@@H]1NC(=O)[C@@H]2CCCN2C(=O)[C@@H]2CCCN2C(=O)[C@H]([C@@H](C)CC)NC(=O)[C@H](CO)NC(=O)[C@H](C)NC(=O)[C@H]([C@@H](C)O)NC(=O)[C@@H]2CSSC[C@H](NC1=O)C(=O)N[C@@H](Cc1ccccc1)C(=O)N1CCC[C@H]1C(=O)N[C@@H](CC(=O)O)C(=O)NCC(=O)N[C@@H](CCCNC(=N)N)C(=O)N2` (cyclo(ASIPPICFPDGRCT); disulfide 7-13) the entry was “Active”; with `CC[C@H](C)[C@@H]1NC(=O)[C@H](CCC(N)=O)NC(=O)[C@H](C(C)C)NC(=O)CNC(=O)[C@H]2CCCN2C(=O)[C@H](C(C)C)NC(=O)[C@H](C)NC(=O)[C@H](Cc2ccccc2)NC(=O)[C@@H]2CSSC[C@H](NC1=O)C(=O)N[C@@H](Cc1ccc(O)cc1)C(=O)N[C@@H](CCCCN)C(=O)N[C@@H](CO)C(=O)N[C@@H]([C@@H](C)CC)C(=O)N1CCC[C@H]1C(=O)N1CCC[C@H]1C(=O)N[C@@H]([C@@H](C)CC)C(=O)N2`, “Active”.

These data come from ChEMBL document CHEMBL3774331, “Inhibition of tau aggregation using a naturally-occurring cyclic peptide scaffold” (Eur J Med Chem, 2016).
